In paper PMC10975543, “Redox Reactivity of Nonsymbiotic Phytoglobins towards Nitrite” (Molecules, 2024) one finds Kd data, which are given here for 1 compound.

The target of the experiment is T1, AtHb3 (Arabidopsis thaliana, UniProt Q67XG0).
T1 construct: gene GLB3; recombinant in E. coli BL21(DE3), N-terminal 8xHis-MBP tag, TEV cleaved; class 3 truncated Hb; ferric (met) heme form
T1 sequence (Q67XG0 1-175): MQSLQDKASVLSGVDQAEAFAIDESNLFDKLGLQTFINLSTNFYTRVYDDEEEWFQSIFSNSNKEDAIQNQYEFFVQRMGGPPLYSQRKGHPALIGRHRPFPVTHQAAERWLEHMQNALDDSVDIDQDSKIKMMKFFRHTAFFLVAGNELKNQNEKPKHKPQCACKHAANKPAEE
The experiment is described as follows: UV-vis titration of the Soret band at […] nm. Format: binding.

`O=NO` [nitrite]: the dissociation constant (Kd) – broadly, the constant that tells how readily two partners part at equilibrium – was 1500 ± 500 µM.
